From patent US12419865B2 (priority 2018, dated 2025)
Like-named read-outs stand apart in the source and are kept apart here.

Assays:
hERG channel = hERG channel (Homo sapiens, UniProt Q12809); conditions: pH 7.4
[1] = mouse, in vivo, po
in vivo = conditions: mouse
MACV-p = test: organism not typed; type: cell-based, Machupo (MACV); conditions: Vero, read-out: MACV-p EC50
[2] = guinea pig, 1 h, pH 7.4
replicative LASV [3] = test: microbe, parasite or virus in culture; type: cell-based, Lassa Virus; conditions: Mammarenavirus lassaense
[4] = 1 h, pH 7.4
[5] = 1 h, pH 7.4; remark: listed apart in the source
[6] = 1 h, pH 7.4; remark: listed apart in the source
VSV-p = test: microbe, parasite or virus in culture; type: cell-based; conditions: Vesicular stomatitis virus, Vero, read-out: VSV-p EC50
[7] = mouse, in vivo, 30 mg/kg
[8] = 1 h, pH 7.4; remark: listed apart in the source
in vitro = conditions: African green monkey
[9] = tested on: native replicating Tacaribe (TCRV) virus; test: microbe, parasite or virus in culture; type: cell-based; conditions: Mammarenavirus tacaribeense, Vero, 120 h, read-out: TCRV EC50
[10] = 1 h, pH 7.4; remark: listed apart in the source
TCRV-p = test: organism not typed; type: cell-based; conditions: read-out: TCRV-p EC50
replicative LASV [11] = test: microbe, parasite or virus in culture; type: cell-based, Lassa Virus; conditions: for EC90: Mammarenavirus lassaense
LASV-p = test: microbe, parasite or virus in culture; type: cell-based, Lassa (LASV); conditions: Vesicular stomatitis virus, Vero, read-out: LASV-p EC50
JUNV-p = test: organism not typed; type: cell-based, Junin (JUNV); conditions: Vero, read-out: JUNV-p EC50

Sequence of hERG channel (Q12809 whole entry): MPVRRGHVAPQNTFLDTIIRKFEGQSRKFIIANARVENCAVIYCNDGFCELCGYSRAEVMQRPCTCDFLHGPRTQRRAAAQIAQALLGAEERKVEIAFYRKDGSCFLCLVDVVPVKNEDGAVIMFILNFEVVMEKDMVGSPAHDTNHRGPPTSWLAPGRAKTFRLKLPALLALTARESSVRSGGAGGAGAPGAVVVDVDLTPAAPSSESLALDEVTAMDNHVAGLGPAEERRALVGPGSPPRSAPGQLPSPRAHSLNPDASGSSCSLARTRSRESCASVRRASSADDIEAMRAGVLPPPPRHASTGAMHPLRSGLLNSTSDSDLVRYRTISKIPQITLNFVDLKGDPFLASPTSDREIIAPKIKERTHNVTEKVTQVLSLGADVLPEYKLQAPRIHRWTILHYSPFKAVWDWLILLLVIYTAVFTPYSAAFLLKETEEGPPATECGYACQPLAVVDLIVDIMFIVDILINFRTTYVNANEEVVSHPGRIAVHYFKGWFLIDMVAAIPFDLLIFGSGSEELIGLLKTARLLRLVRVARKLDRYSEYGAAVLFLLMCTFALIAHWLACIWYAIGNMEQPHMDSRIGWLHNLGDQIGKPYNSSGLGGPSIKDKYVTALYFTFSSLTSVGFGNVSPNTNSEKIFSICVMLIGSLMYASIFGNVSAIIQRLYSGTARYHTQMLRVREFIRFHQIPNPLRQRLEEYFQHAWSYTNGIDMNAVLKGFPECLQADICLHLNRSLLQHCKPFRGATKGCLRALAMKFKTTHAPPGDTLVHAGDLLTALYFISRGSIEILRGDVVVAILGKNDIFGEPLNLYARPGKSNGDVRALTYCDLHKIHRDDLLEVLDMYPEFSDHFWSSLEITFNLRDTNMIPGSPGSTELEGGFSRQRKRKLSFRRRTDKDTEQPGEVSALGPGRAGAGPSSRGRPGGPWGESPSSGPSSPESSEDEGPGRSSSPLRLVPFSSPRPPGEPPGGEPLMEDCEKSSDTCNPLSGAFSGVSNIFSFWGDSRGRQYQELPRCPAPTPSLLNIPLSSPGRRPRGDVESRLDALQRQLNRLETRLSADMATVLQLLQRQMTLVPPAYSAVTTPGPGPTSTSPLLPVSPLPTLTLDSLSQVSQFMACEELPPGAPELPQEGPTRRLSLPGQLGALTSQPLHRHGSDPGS

For `Cc1cc2ncn(-c3ccc(OC(C)(C)C)cc3)c2cc1-c1ccc(C(C)(C)O)cc1` [Example A1, 2-(4-(1-(4-(tert-butoxy)phenyl)-5-methyl-1H-benzo[d]imidazol-6-yl)phenyl)propan-2-ol], the “% Inhibition at 3 uM” value (hERG channel) was under 10%, the “24 hr liver concentration” value [1] was 240.3 ug/g liver and the “24 hr plasma concentration” value [1] was 8.8 µg/mL. For the same compound, the Vd (in vivo) was 17.6 L/kg, the clearance (in vivo) was 0.8 mL/min/kg and the AUC(0-t) (in vivo; po, 30 mg/kg) was 183 µg·h/mL. The bioavailability (in vivo; po, 30 mg/kg) was 35%, the half-life (in vivo; po, 30 mg/kg) was 17 h and the EC50 (MACV-p) was 0.12 nM. The “Percent parent compound remaining at 60 minutes in liver microsomes, Guinea” value [2] was over 95%, the EC50 (replicative LASV [3]; read-out: EC50 in the plaque assay format) was 1 to 3 nM and the EC50 (replicative LASV [3]; read-out: Plaque Assay EC50) was under 3 nM. For the same compound, the “Percent parent compound remaining at 60 minutes in liver microsomes, Human” value [4] was 68.3%, the “Percent parent compound remaining at 60 minutes in liver microsomes, Rat” value [5] was 93.8% and the “Percent parent compound remaining at 60 minutes in liver microsomes, Mouse” value [6] was 82.7%. For the same compound, the EC50 (VSV-p) was over 10000 nM, the “Oral C-Max” value [7] was 20.4 µg/mL and the “Oral T-Max” value [7] was 0.5 h. For the same compound, the “Percent parent compound remaining at 60 minutes in liver microsomes, Monkey” value [8] was 8.6%, the CC50 (in vitro) was 37700 nM and the EC50 [9] was 0.89 nM. For the same compound, the “Percent parent compound remaining at 60 minutes in liver microsomes, Dog” value [10] was over 95%, the EC50 (TCRV-p; Vero) was 0.29 nM and the EC50 (TCRV-p) was 0.24 nM. The Sl90 (replicative LASV [11]) was >33,000, the EC90 (replicative LASV [11]; Vero, read-out: VYR Assay EC90) was under 1 nM and the EC90 (replicative LASV [11]; read-out: EC90 in the VYR assay format) was 1 to 3 nM. It also gave an EC50 (LASV-p) of 0.83 nM and an EC50 (JUNV-p) of 0.87 nM.
